This note sets out measurements from patent publication US20240246946A1, “MODULATORS OF TREX1” (Constellation Pharmaceuticals, Inc., priority 2021, published 2024).

For orientation: pIC50 means the negative decadic logarithm of the IC50, by convention in mol/L.

pIC50: −log10 of the molar value.

One test has as its target T1, full length human TREX1 (Homo sapiens, UniProt Q9NSU2).
T1 construct: N-terminally His-Tev tagged full length human TREX1; made in house; host or cells: E. coli
T1 sequence (Q9NSU2 1-314): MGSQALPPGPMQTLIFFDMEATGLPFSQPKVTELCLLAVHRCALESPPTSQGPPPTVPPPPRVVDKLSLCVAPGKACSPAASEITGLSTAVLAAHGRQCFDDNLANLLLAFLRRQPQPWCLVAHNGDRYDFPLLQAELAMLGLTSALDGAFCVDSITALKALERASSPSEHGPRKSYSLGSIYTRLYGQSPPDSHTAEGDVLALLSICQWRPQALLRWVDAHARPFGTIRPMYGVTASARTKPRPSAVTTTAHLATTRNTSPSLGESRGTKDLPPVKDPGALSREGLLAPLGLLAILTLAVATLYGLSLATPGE
The experiment in a line: hTREX1 Biochemical Assay (fluorescence, dsDNA substrate degradation). Conditions: biochemical, read-out: hTREX1 IC50. Here is the method: (§1) Degradation of the dsDNA liberates free fluorophore to produce a fluorescent signal. Specifically, 7.5 μL of N-terminally His-Tev tagged full length human TREX1 (expressed in E. coli and purified in house) in reaction buffer (50 mM Tris, 150 mM NaCl, 2 mM DTT, 0.1 mg/mL BSA, 0.01% (w/v) Tween-20, 5 mM MgCl2, pH 7.4) was added to a 384-well Black ProxiPlate Plus (PerkinElmer) which already contained compound (150 nL) at varying concentrations as a 10 point dose-response in DMSO. The plate was incubated at 25° C. for 4 hours. Reactions were initiated by adding 7.5 μL of dsDNA substrate (Strand A: 5′ TEX615/GCT AGG CAG 3′; Strand B: 5′ CTG CCT AGC/IAbRQSp (Integrated DNA Technologies)) in reaction buffer. Final concentrations were 4 pM TREX1, 60 nM dsDNA substrate in reaction buffer with 1.0% DMSO (v/v). After 18 hours at 25° C., reactions were quenched by the addition of 2 μL of 500 mM EDTA.

The target in the next test is T2, full length mouse TREX1 (Mus musculus, UniProt Q91XB0).
T2 construct: N-terminally His-Tev tagged full length mouse TREX1; made in house; host or cells: E. coli
T2 sequence (Q91XB0 1-314): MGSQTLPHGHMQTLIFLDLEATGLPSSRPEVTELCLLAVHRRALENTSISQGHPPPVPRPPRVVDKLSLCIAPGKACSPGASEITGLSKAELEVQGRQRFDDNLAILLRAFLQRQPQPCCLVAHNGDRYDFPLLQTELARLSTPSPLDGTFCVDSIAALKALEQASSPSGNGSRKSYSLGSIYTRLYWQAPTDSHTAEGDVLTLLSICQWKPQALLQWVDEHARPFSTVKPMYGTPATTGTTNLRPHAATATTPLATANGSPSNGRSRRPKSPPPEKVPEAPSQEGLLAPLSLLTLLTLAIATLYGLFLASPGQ
In words: mTREX1 Biochemical Assay (fluorescence, dsDNA substrate degradation). Conditions: biochemical, read-out: mTREX1 IC50. As to the method: as §1, with “length mouse” for “length human”, “were 6” for “were 4”

`CC(c1nc(C(=O)Nc2cnoc2)c(O)c(=O)n1C)C(c1cnn(CCN2CCN(C(=O)OC(C)(C)C)CC2)c1)c1ccccc1C#N` (single isomer, unassigned) [Example 21 D2E2]: the negative logarithm of the IC50 (pIC50) on full length human TREX1 and at full length mouse TREX1 was less than 8.00 throughout.

As to `CC(c1nc(C(=O)Nc2cnoc2)c(O)c(=O)n1C)C(c1cnn(CC(F)(F)F)c1)c1ccccc1C#N` (single isomer, unassigned) [Example 22 D1E2], the pIC50 on full length human TREX1 and at full length mouse TREX1 was less than 8.00 in each case.

Regarding `CC(c1nc(C(=O)Nc2cnoc2)c(O)c(=O)n1C)C(c1cnn(CC(F)(F)F)c1)c1ccccc1C#N` (single isomer, unassigned) [Example 22 D2E2], the pIC50 at full length human TREX1 and at full length mouse TREX1 was less than 8.00 in each case.

Consider `CC(c1nc(C(=O)Nc2cnoc2)c(O)c(=O)n1C)C(c1cnn(CC2CC2)c1)c1ccccc1C#N` (single isomer, unassigned) [Example 23 D1E1], for which the pIC50 on full length human TREX1 and at full length mouse TREX1 was less than 8.00 throughout.

`CC(c1nc(C(=O)Nc2cnoc2)c(O)c(=O)n1C)C(c1cnn(CC2CC2)c1)c1ccccc1C#N` (single isomer, unassigned) [Example 23 D2E1]: the pIC50 at full length human TREX1 and at full length mouse TREX1 was less than 8.00 each time.

Consider `CC(c1nc(C(=O)Nc2cnoc2)c(O)c(=O)n1C)C(c1cnn(CC2CC2)c1)c1ccccc1C#N` (single isomer, unassigned) [Example 23 D2E2], for which the pIC50 on full length human TREX1 and at full length mouse TREX1 was less than 8.00 each time.

Turning to `COCCCn1cc(C(c2ccccc2C#N)C(C)c2nc(C(=O)Nc3cnoc3)c(O)c(=O)n2C)cn1` (single isomer, unassigned) [Example 24 D1E2], the negative-log IC50 (pIC50) at full length human TREX1 and at full length mouse TREX1 was less than 8.00 throughout.

With `COCCCn1cc(C(c2ccccc2C#N)C(C)c2nc(C(=O)Nc3cnoc3)c(O)c(=O)n2C)cn1` (single isomer, unassigned) [Example 24 D2E1], the pIC50 at full length human TREX1 and at full length mouse TREX1 was less than 8.00 each time.

Regarding `COCCCn1cc(C(c2ccccc2C#N)C(C)c2nc(C(=O)Nc3cnoc3)c(O)c(=O)n2C)cn1` (single isomer, unassigned) [Example 24 D2E2], the negative-log IC50 (pIC50) at full length human TREX1 and on full length mouse TREX1 was less than 8.00 throughout.

In the case of `CC(c1nc(C(=O)Nc2cnoc2)c(O)c(=O)n1C)C(c1cnn(C)c1)c1cc(F)c(F)cc1C#N` (single isomer, unassigned) [Example 25 D1E2], the pIC50 on full length human TREX1 and on full length mouse TREX1 was less than 8.00 in each case.

Consider `CC(c1nc(C(=O)Nc2cnoc2)c(O)c(=O)n1C)C(c1cnn(C)c1)c1cc(F)c(F)cc1C#N` (single isomer, unassigned) [Example 25 D2E1], for which the pIC50 on full length human TREX1 and on full length mouse TREX1 was less than 8.00 each time.

With `CC(c1nc(C(=O)Nc2cnoc2)c(O)c(=O)n1C)C(c1cnn(C)c1)c1cc(F)c(F)cc1C#N` (single isomer, unassigned) [Example 25 D2E2], the pIC50 at full length human TREX1 and on full length mouse TREX1 was less than 8.00 each time.

As for `CC(c1nc(C(=O)Nc2cnoc2)c(O)c(=O)n1C)C(c1cnn(C)c1)c1cc(Cl)ccc1C#N` (single isomer, unassigned) [Example 26 D1E1], the pIC50 at full length human TREX1 and on full length mouse TREX1 was less than 8.00 in each case.

Turning to `CC(c1nc(C(=O)Nc2cnoc2)c(O)c(=O)n1C)C(c1cnn(C)c1)c1cc(Cl)ccc1C#N` (single isomer, unassigned) [Example 26 D2E2], the pIC50 on full length human TREX1 and at full length mouse TREX1 was less than 8.00 each time.

As for `CC(c1nc(C(=O)Nc2cnoc2)c(O)c(=O)n1C)C(c1cnn(C)c1)c1ccc(Cl)cc1C#N` (single isomer, unassigned) [Example 27 D2E1], the pIC50 on full length human TREX1 and at full length mouse TREX1 was less than 8.00 throughout.

`CC(c1nc(C(=O)Nc2cnoc2)c(O)c(=O)n1C)C(c1cnn(C)c1)c1ccc(Cl)cc1C#N` (single isomer, unassigned) [Example 27 D2E2]: the pIC50 at full length human TREX1 and at full length mouse TREX1 was less than 8.00 throughout.

`CC(c1nc(C(=O)Nc2cnoc2)c(O)c(=O)n1C)C(c1cnn(C)c1)c1cc(F)c(F)cc1Cl` (single isomer, unassigned) [Example 28 D1E2]: the pIC50 on full length human TREX1 and on full length mouse TREX1 was less than 8.00 throughout.

`CC(c1nc(C(=O)Nc2cnoc2)c(O)c(=O)n1C)C(c1cnn(C)c1)c1cc(F)c(F)cc1Cl` (single isomer, unassigned) [Example 28 D2E1]: the negative logarithm of the IC50 (pIC50) on full length human TREX1 and on full length mouse TREX1 was less than 8.00 throughout.

As to `CC(c1nc(C(=O)Nc2cnoc2)c(O)c(=O)n1C)C(c1cnn(C)c1)c1cc(F)c(F)cc1Cl` (single isomer, unassigned) [Example 28 D2E2], the pIC50 at full length human TREX1 and at full length mouse TREX1 was less than 8.00 in each case.

Turning to `CC(c1nc(C(=O)Nc2cnoc2)c(O)c(=O)n1C)C(c1cnn(C)c1)c1cc(C(F)(F)F)ccc1C#N` (single isomer, unassigned) [Example 29 D1E2], the pIC50 at full length human TREX1 and on full length mouse TREX1 was less than 8.00 throughout.

Consider `CC(c1nc(C(=O)Nc2cnoc2)c(O)c(=O)n1C)C(c1cnn(C)c1)c1cc(C(F)(F)F)ccc1C#N` (single isomer, unassigned) [Example 29 D2E1], for which the negative logarithm of the IC50 (pIC50) on full length human TREX1 and on full length mouse TREX1 was less than 8.00 throughout.

`CC(c1nc(C(=O)Nc2cnoc2)c(O)c(=O)n1C)C(c1cnn(C)c1)c1cc(C(F)(F)F)ccc1C#N` (single isomer, unassigned) [Example 29 D2E2]: the negative logarithm of the IC50 (pIC50) at full length human TREX1 and on full length mouse TREX1 was less than 8.00 in each case.

Turning to `CC(c1nc(C(=O)Nc2cnoc2)c(O)c(=O)n1C)C(c1cnn(C)c1)c1ccc(C(F)(F)F)cc1C#N` (single isomer, unassigned) [Example 30 D1E2], the pIC50 at full length human TREX1 and at full length mouse TREX1 was less than 8.00 each time.

As to `CC(c1nc(C(=O)Nc2cnoc2)c(O)c(=O)n1C)C(c1cnn(C)c1)c1ccc(C(F)(F)F)cc1C#N` (single isomer, unassigned) [Example 30 D2E1], the pIC50 at full length human TREX1 and on full length mouse TREX1 was less than 8.00 throughout.

Regarding `CC(c1nc(C(=O)Nc2cnoc2)c(O)c(=O)n1C)C(c1cnn(C)c1)c1ccc(C(F)(F)F)cc1C#N` (single isomer, unassigned) [Example 30 D2E2], the pIC50 on full length human TREX1 and at full length mouse TREX1 was less than 8.00 in each case.

For the compound `CC(c1nc(C(=O)Nc2cnoc2)c(O)c(=O)n1C)C(c1cnn(CCN2CCNCC2)c1)c1ccccc1C#N` (single isomer, unassigned) [Example 31 D1E2], the pIC50 on full length human TREX1 and at full length mouse TREX1 was less than 8.00 throughout.

Take `CC(c1nc(C(=O)Nc2cnoc2)c(O)c(=O)n1C)C(c1cnn(CCN2CCNCC2)c1)c1ccccc1C#N` (single isomer, unassigned) [Example 31 D2E1]: the pIC50 on full length human TREX1 and at full length mouse TREX1 was less than 8.00 throughout.

Consider `CC(c1nc(C(=O)Nc2cnoc2)c(O)c(=O)n1C)C(c1cnn(CCN2CCNCC2)c1)c1ccccc1C#N` (single isomer, unassigned) [Example 31 D2E2], for which the pIC50 at full length human TREX1 and on full length mouse TREX1 was less than 8.00 throughout.

Consider `CC(c1nc(C(=O)Nc2cnoc2)c(O)c(=O)n1C)C(c1cnn(CCN2CCN(C)CC2)c1)c1ccccc1C#N` (single isomer, unassigned) [Example 32 D1E2], for which the pIC50 was 8.00 to 9.00 at full length human TREX1 and less than 8.00 on full length mouse TREX1.

`CC(c1nc(C(=O)Nc2cnoc2)c(O)c(=O)n1C)C(c1cnn(CCN2CCN(C)CC2)c1)c1ccccc1C#N` (single isomer, unassigned) [Example 32 D2E2]: the pIC50 on full length human TREX1 and on full length mouse TREX1 was less than 8.00 in each case.
